Assay results from paper PMC6273847, “Protein Tyrosine Phosphatase 1B Inhibitors from the Stems of Akebia quinata” (Molecules, 2016).
Read-outs that look alike come from different tables or passages of the source.

Columns and labels:
MCF7 = assay: Cytotoxic activity against MCF7 breast cancer cells
MDA-MB-231 = assay: Cytotoxic activity against MDA-MB-231 breast cancer cells
MCF7/TAMR = assay: Cytotoxic activity against tamoxifen-resistant MCF7 cells
[1] = molecular target: T1, PTP1B (human, recombinant) (Homo sapiens, UniProt P18031); assay: PTP1B enzyme assay (p-NPP substrate); format: biochemical; conditions: for IC50: mean ± SD of three replicates, 4 mM p-NPP, 37 °C, 30 min; for PTP1B inhibition mode (Lineweaver-Burk plot): p-NPP 1, 2, 4, 8 mM, compound 1, 2, 5, 10 μM
T1 construct: purchased BIOMOL International LP (USA)
T1 sequence (P18031 1-435): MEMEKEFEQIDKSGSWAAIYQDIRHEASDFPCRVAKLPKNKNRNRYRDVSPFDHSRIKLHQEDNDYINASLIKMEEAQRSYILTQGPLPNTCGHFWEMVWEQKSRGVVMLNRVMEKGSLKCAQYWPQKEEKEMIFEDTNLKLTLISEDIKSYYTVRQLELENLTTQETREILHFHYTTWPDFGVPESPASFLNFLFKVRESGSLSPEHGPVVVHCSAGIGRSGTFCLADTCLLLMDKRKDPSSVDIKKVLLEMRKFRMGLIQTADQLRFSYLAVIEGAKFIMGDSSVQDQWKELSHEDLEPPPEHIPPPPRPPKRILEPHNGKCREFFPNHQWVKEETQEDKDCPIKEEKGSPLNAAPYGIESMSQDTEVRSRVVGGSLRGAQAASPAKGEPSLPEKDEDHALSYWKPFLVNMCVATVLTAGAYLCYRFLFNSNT
Protocol: PTP1B (human, recombinant) was purchased from BIOMOL International LP (USA) and the enzyme activity was measured using p-nitrophenyl phosphate (p-NPP) (N1891, Sigma-Aldrich, St. Louis, MO, USA) as a substrate. In general, the assay was performed in 96-well plate containing 4 mM p-NPP and PTP1B (0.05–0.1 μg) in enzyme buffer (50 mM citrate (pH 6.0), 0.1 M NaCl, 1 mM dithiothreitol (DTT), and 1 mM EDTA) with or without test compounds. The assay was also carried out in the absence of PTP1B enzyme to exclude the effect of test compounds on the measurement absorbance. Following incubation at 37 °C for 30 min, the reaction was terminated with 10 M NaOH solution. The amount of produced p-nitrophenol was estimated by measuring the absorbance at 405 nm using an absorbance microplate reader (VersaMax™, Randor, PA, USA). For the enzyme kinetic determination, Lineweaver-Burk was used to determine the inhibition type of PTP1B. On the basis of Lineweaver-Burk double reciprocal plots, the PTP1B inhibition mode was obtained at various concentrations of p-NPP substrate (1, 2, 4, and 8 mM) without or with different test compound concentrations (1, 2, 5, and 10 μM).

MCF-7 cells = assay: Flow cytometric analysis of cell apoptosis (ApopNexin FITC / PI); format: cell-based
Protocol: An ApopNexin™ FITC kit (Millipore) was used for the flow cytometric analysis. After MCF-7 cells were seeded on 6-well plates and incubated for 24 h, the cells were treated with test compounds and incubated for 12 h. The detached cells were collected and resuspended to wash the cells twice with PBS. The cells were suspended in cold binding buffer (10 mM Hepes/NaOH pH 7.4, 140 mM NaCl, 2.5 mM CaCl2) at a concentration of 10^6 cells/mL. Annexin conjugate ApopNexin™ FITC and propidium iodide (PI) were added to the cell suspension, which was incubated for 15 min in the dark. Then, the double-stained cells were immediately analyzed using a flow cytometer (BD bioscience, San Jose, CA, USA).

[2] = tested on: MCF7, MDA-MB-231 and MCF7/TAMR breast cancer cell lines
[3] = Homo sapiens, MCF7, read-out: Cytotoxic Activities (IC50, μM) MCF7
[4] = Homo sapiens, MDA-MB-231, read-out: Cytotoxic Activities (IC50, μM) MDA-MB-231
[5] = Homo sapiens, MCF7, read-out: Cytotoxic Activities (IC50, μM) MCF7/TAMR

CC1(C)CC[C@]2(C(=O)O)CC[C@]3(C)C(=CCC4[C@@]5(C)CCC(O[C@@H]6OC[C@H](O[C@@H]7O[C@H](CO)[C@@H](O)[C@H](O)[C@H]7O)[C@H](O)[C@H]6O)C(C)(C)C5CC[C@]43C)C2C1 (stereo partly drawn) [Compound 8]
IC50 (MCF7; [3]): 1.29 ± 0.09 µM | IC50 (MDA-MB-231; [4]): 1.55 ± 0.21 µM | IC50 (MCF7/TAMR; [5]): 1.78 ± 0.13 µM | IC50 [1]: 21.8 ± 4.74 µM

CC/C(=C(\c1ccccc1)c1ccc(OCCN(C)C)cc1)c1ccccc1 [Tamoxifen, tamoxifen, reference compound]
IC50 (MCF7; [3]): 8.01 ± 1.81 µM | IC50 (MDA-MB-231; [4]): 10.1 ± 1.51 µM | IC50 (MCF7/TAMR; [5]): 25.4 ± 1.79 µM

CC1(C)CC[C@]2(C(=O)O)CC[C@]3(C)C(=CCC4[C@@]5(C)CCC(O[C@@H]6OC[C@H](O)[C@H](O)[C@H]6O)C(C)(C)C5CC[C@]43C)C2C1 (stereo partly drawn) [Compound 6, 3-O-α-L-arabinopyranosyl olean-12-en-28-oic acid]
IC50 (MCF7; [3]): 1.11 ± 0.04 µM | IC50 (MDA-MB-231; [4]): 0.84 ± 0.17 µM | IC50 (MCF7/TAMR; [5]): 1.39 ± 0.18 µM | IC50 [1]: 4.08 ± 1.09 µM | PTP1B inhibition mode (Lineweaver-Burk plot) [1]: noncompetitive | percentage of apoptotic cancer cells (higher right field, Annexin FITC/PI) (MCF-7 cells; 10 μM, 12 h): 89.47% | viability at 10 µM (MCF-7 cells; Homo sapiens, MCF7, 12 h, read-out: percentage of cells in lower left field (viable; low Annexin V and PI staining)): 0.75%

4-hydroxy tamoxifen [4-OH tamoxifen, reference compound]
IC50 (MCF7; read-out: Cytotoxic Activities (IC50, μM) MCF7, MCF7, mean ± SD of three replicates): 2.11 ± 0.39 µM | IC50 (MDA-MB-231; read-out: Cytotoxic Activities (IC50, μM) MDA-MB-231, MDA-MB-231, mean ± SD of three replicates): 3.1 ± 0.31 µM | IC50 (MCF7/TAMR; read-out: Cytotoxic Activities (IC50, μM) MCF7/TAMR, MCF7/TAMR, mean ± SD of three replicates): 13.6 ± 1.25 µM

CC(CO)c1cc2c(c(O)c1O)[C@@]1(C)CCCC(C)(C)C1CC2=O (stereo partly drawn) [Compound 2, cyrtophyllones B]
IC50 (MCF7; [3]): 7.91 ± 0.39 µM | IC50 (MDA-MB-231; [4]): 4.04 ± 0.8 µM | IC50 (MCF7/TAMR; [5]): 13.4 ± 1.26 µM | IC50 [1]: 6.77 ± 1.28 µM | cytotoxic activities against breast cancer lines, IC50 values ranging over the cell lines [2]: 0.84 ± 0.17 to 13.42 ± 1.26

CC1(C)CC[C@]2(C(=O)O)CC[C@]3(C)C(=CCC4[C@@]5(C)C[C@@H](O)[C@@H](O)[C@](C)(CO)C5CC[C@]43C)C2C1 (stereo partly drawn) [Compound 11, 2α,3α,23-trihydroxyoleane-12-en-28-oic acid]
IC50 (MCF7; [3]): > 40 µM | IC50 [1]: 7.78 ± 1.43 µM

CC1=C(C)C2=CC(=O)c3c(O)c4c(c(O)c3[C@@]2(C)CC1)O[C@@H](C)C4 [Compound 3, uncinatone]
IC50 (MCF7; [3]): 6.02 ± 2.32 µM | IC50 (MDA-MB-231; [4]): 5.14 ± 1.55 µM | IC50 (MCF7/TAMR; [5]): 7.73 ± 1.02 µM | IC50 [1]: 5.41 ± 0.68 µM | PTP1B inhibition mode (Lineweaver-Burk plot) [1]: noncompetitive | cytotoxic activities against breast cancer lines, IC50 values ranging over the cell lines [2]: 0.84 ± 0.17 to 13.42 ± 1.26
